Results as given in article PMC4761938 (2016).

Legend:
Experiment in all cases: graphene oxide fluorescence desorption assay
[1] = test system: OA-27 (DNA, aptamer) CAGCTCAGAAGCTTGATCCTATTTGACCATGTCGAGGGAGACGCGCAGTCGCTACCACCTGACTCGAAGTCGTGCATCTG; settings: 150 mM Na+, 2 mM Mg2+, binding buffer 50 mM Tris, pH 7.4; for binding: 1 μM compound tested, 150 nM aptamer
[2] = test system: OA-17 (DNA, aptamer) CAGCTCAGAAGCTTGATCCTTTCCCCAAACTGTTGCAACCTCTGCTTTCTTTCGCTATATGACTCGAAGTCGTGCATCTG; settings: 150 mM Na+, 2 mM Mg2+, binding buffer 50 mM Tris, pH 7.4; for binding: 1 μM compound tested, 150 nM aptamer
[3] = test system: OA-08 (DNA, aptamer) CAGCTCAGAAGCTTGATCCTAGCCCGCCAACCTACATCATCTACACTTCGTTTTAACCTTGACTCGAAGTCGTGCATCTG; settings: 150 mM Na+, 2 mM Mg2+, binding buffer 50 mM Tris, pH 7.4; for binding: 1 μM compound tested, 150 nM aptamer
[4] = test system: OA27-1 (DNA, aptamer) ATTTGACCATGTCGAGGGAGACGCGCAGTCGCTACCACCT; settings: 150 mM Na+, 2 mM Mg2+; binding buffer 50 mM Tris, pH 7.4; FAM-aptamer, GO separation
[5] = test system: OA-22 (DNA, aptamer) CAGCTCAGAAGCTTGATCCTGGCCCCGATATGATTGCTATCATTCGCATCTGCTTCACTTGACTCGAAGTCGTGCATCTG; settings: 150 mM Na+, 2 mM Mg2+; binding buffer 50 mM Tris, pH 7.4; 1 μM OA, 5–200 nM aptamer
[6] = test system: OA-14 (DNA, aptamer) CAGCTCAGAAGCTTGATCCTATGCTTCGTGGGACAAGAGTTGACACATCGTCGTTAGGTTGACTCGAAGTCGTGCATCTG; settings: 150 mM Na+, 2 mM Mg2+; binding buffer 50 mM Tris, pH 7.4; 1 μM OA, 5–200 nM aptamer
[7] = test system: OA-21 (DNA, aptamer) CAGCTCAGAAGCTTGATCCTGGATGACCGTTGCAAGCGATCCATTGTTGTTTGATCATGTGACTCGAAGTCGTGCATCTG; settings: 150 mM Na+, 2 mM Mg2+; binding buffer 50 mM Tris, pH 7.4; 1 μM OA, 5–200 nM aptamer
[8] = test system: OA-01 (DNA, aptamer) CAGCTCAGAAGCTTGATCCTGCACACGAGTTACGCCCCATCGTTGTCCTTTCCCTCACGTGACTCGAAGTCGTGCATCTG; settings: 150 mM Na+, 2 mM Mg2+; binding buffer 50 mM Tris, pH 7.4; 1 μM OA, 5–200 nM aptamer
[9] = test system: OA-09 (DNA, aptamer) CAGCTCAGAAGCTTGATCCTTAGCACACAACCCTTTGATTGGGATATCTCATCCCTCGGACTCGAAGTCGTGCATCTG; settings: 150 mM Na+, 2 mM Mg2+; binding buffer 50 mM Tris, pH 7.4; 1 μM OA, 5–200 nM aptamer

SMILES: C/C(=C/C=C/[C@@H](C)C(=O)O)[C@H]1CN[C@H](C(=O)O)[C@H]1CC(=O)O
- binding [1]: no

SMILES: C=C1[C@@H](O)[C@@H]2O[C@]3(CC[C@H](/C=C/[C@@H](C)[C@@H]4CC(C)=C[C@@]5(O[C@H](C[C@@](C)(O)C(=O)O)CC[C@H]5O)O4)O3)CC[C@H]2O[C@@H]1[C@@H](O)C[C@H](C)[C@@H]1CCC[C@@]2(OCCC[C@H]2C)O1
- binding [2]: yes
- binding [3]: yes
- binding [1]: no

SMILES: C=C1[C@@H](O)[C@@H]2O[C@]3(CC[C@H](/C=C/[C@@H](C)[C@@H]4CC(C)=C[C@@]5(O[C@H](C[C@@](C)(O)C(=O)O)CC[C@H]5O)O4)O3)CC[C@H]2O[C@@H]1[C@@H](O)C[C@H](C)[C@H]1O[C@@]2(CCCCO2)CC[C@H]1C
- Kd [4]: 40 nM
- Kd [5]: 70 ± 16 nM
- Kd [6]: 1772 ± 543 nM
- Kd ([2]; 1 μM OA, 5–200 nM aptamer): 79 ± 20 nM
- Kd ([3]; 1 μM OA, 5–200 nM aptamer): 88 ± 30 nM
- Kd [7]: 118 ± 18 nM
- Kd ([1]; 1 μM OA, 5–200 nM aptamer): 42 ± 4 nM
- Kd [8]: 125 ± 22 nM
- Kd [9]: 127 ± 39 nM

SMILES: C=C1[C@@H](O)[C@@H]2O[C@]3(CC[C@H](/C=C/[C@@H](C)[C@@H]4CC(C)=C[C@@]5(O[C@H](C[C@@](C)(O)C(=O)O)CC[C@H]5O)O4)O3)CC[C@H]2O[C@@H]1[C@@H](O)C[C@H](C)[C@H]1O[C@@]2(CC[C@H]1C)OCCC[C@H]2C
- binding [2]: yes
- binding [3]: yes
- binding [1]: no
